{
  "source": "patent US9486472B2",
  "about": "“Methods for modulating neuronal responses” (UNIVERSITY OF BRITISH COLUMBIA CANADA, priority 2003, dated 2016)",
  "key": {"AMPAR": {"system": "AMPAR", "experiment": "Quantification of AMPAR endocytosis in response to NMDA treatment (cellular ELISA), cortical neurons", "format": "cell-based, Wistar rat", "details": "50 μM NMDA + 10 μM glycine 30 min; peptide 1 μM, 60 min pretreatment; control 69%", "method": "The cortex was dissected from 18 days in utero Wistar embryos and was treated with trypsin-EDTA for 15 min at 37° C. The cells were then washed 3 times and triturated to a single cell suspension. The neurons with glia were then seeded at a density of ˜2.5×10^5 neurons/well in 12 well tissue culture plates coated with poly-D lysine. The cells were then cultured for 24-48 h in plating media (Gibco Neurobasal™, 1% FBS, 2% B-27 supplement, 0.5 mM […], and 25 μM glutamic acid), after which the cells were treated with Neurobasal™ maintenance media (NMM: Gibco Neurobasal™ Media+0.5 mM […], 2% B-27 supplement) with 10 μM 5-Fluoro-2′-deoxyuridine (FDU) to enrich the culture for neurons (−85%). After 24 h-48 h culture in FDU, the cells were maintained on NMM changed every 4 days.\nUsing cellular ELISA, the amount of intracellular versus extracellular AMPAR expression was measured allowing quantification of AMPAR endocytosis in response to NMDA insult. DIV 12-13 neurons were washed once with room temperature ECS. […] The absorbance at 492 nm was read using a μQuant plate reader (Bio-Tek Instruments Inc.). The data were analyzed by first subtracting the absorbance values for the no-primary controls from the other samples. The percentage AMPAR surface expression was then expressed as a ratio of the non-permeabilized samples to the permeabilized samples. […]"}, "rats [1]": {"system": "rats", "details": "IV 60 min prior to test session; versus saline", "method": "A. Rats maintained on a restricted feeding schedule were trained to lever-press for food pellets (45 mg) on a fixed-ratio 2 (FR2) schedule during 2-hour test sessions. Rats received IV injections of saline, GluR2-3A, or GluR2-3Y, in a counterbalanced order, 60 min prior to the test session. […] B. Rats were first trained to self-administer d-amphetamine (0.2 mg/infusion) via a jugular catheter on an FR2 schedule of reinforcement. Once responding in the 3 hour test sessions had stabilized, the rats were then trained on a Progressive Ratio Schedule in which successively more responses were required to obtain each successive reinforcement. […] Once stable Break point values were established, rats received IV injections of saline, GluR2-3A, or GluR2-3Y, in a counterbalanced order, 60 min prior to the test session."}, "Sprague-Dawley rats": {"system": "Sprague-Dawley rats", "experiment": "Transient focal ischemia model (MCA occlusion), TUNEL staining and neurological exam", "format": "in vivo, rat", "details": "10 min prior to MCA occlusion; 3 nmoles/g", "method": "The procedure was performed essentially as described previously (70). Briefly, adult male Sprague-Dawley rats between 280 and 320 g (20 h fasted weight) were anesthetized with an inhaled mixture of 4% isofluorane, in 30% oxygen balanced nitrous oxide, and maintained on 1.5% isofluorane. Bronchial secretions were minimized by administering 0.5 mg/kg of atropine intraperitoneally. […] The experimenter was blinded to the identity of the treatment groups for all surgeries and down-stream experiments. Under a dissection microscope, the common carotid artery (CCA), external carotid artery (ECA), and internal carotid artery (ICA) were exposed and dissected. […] Rectal temperature, and blood pressure measured with a tail cuff were measured before treatment, 15 min post injection, 50 min post injection, and 15 min post MCA occlusion. The plasma pH, O2, and CO2 were measured with a Rapidlab™ 348 blood gas analyzer (Bayer Diagnostics) in some animals to ensure that the gas flow rates used were appropriate and yielded reproducible blood gases. […]\nAt day 1 post MCAo rats were anesthetized with 1.5 mL of 25% urethane and were perfused with 100 mL of 0.9% saline followed by 120 mLs of 4% paraformaldehyde in PBS. […] The slices were scored for number of cells that stained positive for TMR-TUNEL per field of view at 10× magnification. […]"}, "[2]": {"experiment": "Dose tolerance to serial doses, vital parameters monitored", "format": "in vivo, Sprague-Dawley rats", "method": "FIG. 15. Dose tolerance curve to serial doses of Tat-GluR2-3Y. Two adult male Sprague-Dawley rats were given serial doses of Tat-GluR2-3Y and the basic vital parameters were monitored.\nIn order to determine the maximum dose that could be administered without adverse reaction, two male Sprague Dawley rats were injected with serial doses of Tat-GluR2-3Y ranging from 0.5 nmoles/g to 30 nmoles/g and basic vital parameters were monitored. […] Assuming complete dispersion of the peptide in the animal, this dose corresponds roughly to a concentration of 3 μM."}, "rats [3]": {"system": "rats", "experiment": "Behavioural sensitization to d-amphetamine (stereotypy scores)", "format": "in vivo, rat", "details": "one hour intravenous pre-treatment", "method": "To induces behaviour sensitization to addictive drugs that lead to substance abuse, four separate groups of adult rats were given repetitive injections of damphetamine (2 mg/kg, intraperitoneally (IP)) or saline, every other day for a total of 10 injections. On days 1, 5 and 10 of the injection regimen, the rats were placed in 2-level locomotor boxes for 30 min before the amphetamine injection to habituate to the boxes, and for an additional 2 hours following the injection, and stereotypy scores (drug-induced behaviours) were assessed at 1 minute intervals every 10 minutes for the duration of the 2 hour session. After the 10th injection of d-amphetamine, the rats were given 21 days off, and chronically indwelling catheters were implanted into the jugular vein under anaesthesia.\nOn day 21, the rats were pretreated with 1.5 nM/grTat-GluR2-3Y, or Tat-GluR2-3A or saline by either IV injection, or intracranial microinjection into the nucleus accumbens (Nac), and returned to their home cages for 60 min. The rats were then placed in the locomotor boxes (observation chambers) for 30 min and then treated with a challenge dose of d-amphetamine (2 mg/kg, IP). Stereotypy scores were then assessed as described (FIG. 12A), Points represent mean stereotypy scores (±S.E.M) for groups of rats over the 2 hour test session. […]"}},
  "note": "No end group written: not given here.",
  "data": [
    {"compound": "CN[C@H](CC(=O)O)C(=O)O", "note": "[NMDA, N-methyl-D-aspartate]", "values": [
      {"measurement": "AMPAR surface expression", "setting": "AMPAR", "result": 55, "unit": "%"}
    ]},
    {"compound": "YGRKKRRQRRRYKEGYNVYGIE [Tat-GluR2-3Y, YGRKKRRQRRR-YKEGYNVYGIE]", "values": [
      {"measurement": "Break Point measures for drug-reward", "setting": "rats [1]", "result": "no significant differences in the Break Point measures for drug-reward"},
      {"measurement": "total number of responses for food reward", "setting": "rats [1]", "result": "no significant differences in total number of responses for food reward"},
      {"measurement": "mean arterial blood pressure (MABP) versus saline", "setting": "Sprague-Dawley rats", "result": "significantly lower mean arterial blood pressure"},
      {"measurement": "behaviour after revival from the dose response curve", "setting": "[2]; both animals", "result": "showed no signs of mental depression or other behavioural changes"},
      {"measurement": "dose up to which the drug was tolerated", "setting": "[2]; serial doses 0.5 to 30 nmoles/g, above: large decline in blood pressure, increase in breathing rate", "result": "~12", "unit": "nmol/g"},
      {"measurement": "doses evoking little response in the vital parameters monitored", "setting": "[2]; serial doses, anesthetized rats", "result": "up to 6 nmoles/g"},
      {"measurement": "side effects", "setting": "rats [3]", "result": "without any notable side effects"}
    ]}
  ]
}
